The values below come from US20160102058A1, “FLUORO-PERHEXILINE COMPOUNDS AND THEIR THERAPEUTIC USE” (THE UNIVERSITY COURT OF THE UNIVERSITY OF ABERDEEN, priority 2013, published 2016).

Series [1] in a line: Mouse oral pharmacokinetics, plasma and myocardium. Format: in vivo, male BALB/c mice. The conditions noted are these: for AUC(0-t) / Cmax: male, BALB/c, 10 mg/kg oral gavage. As to the method:
(§1) Absorption, distribution and metabolic stability were studied using an in vivo pharmacokinetics assay. Drug levels were assessed using LC/MS-MS.
(§2) Healthy male BALB/c mice (8-12 weeks old) weighing between 25 and 35 g, or Sprague-Dawley rats weighing between 250 and 300 g were procured from In-vivo Bioscience Bangalore, India. Three mice were housed in each cage. Temperature and humidity were maintained at 22±3° C. and 40-70%, respectively and illumination was controlled to give a sequence of 12 h light and 12 h dark cycle. Temperature and humidity were recorded by auto-controlled data logger system. All of the animals were provided laboratory rodent diet (Vetcare India Pvt. Ltd, Bengaluru) after the drug administration. Reverse osmosis water treated with ultraviolet light was provided ad libitum.
FPER-001 and perhexiline samples were freshly prepared each day before administration. The weighed quantity (11.19 mg) of FPER-001 for p.o. dosing was added into a mortar. […] The formulation was sonicated for 2 min to obtain a homogenous suspension. Thirty mice were administered with the oral formulation at 10 mg/kg dose through oral gavage using a 22-G oral feeding needle. The dosing volume administered was 10 mL/kg.
(§3) Blood samples (approximately 60 μL) were collected from retro-orbital plexus of three mice at each time point (1, 4, 8, 24, 48, 72, 96, 120, 144, and 168 h) or of three rats at each time point (0.25, 0.5, 1, 2, 4, 8, 24, 25, 48, 72 and 73 h). Samples were collected into labeled micro-tubes, containing K2EDTA solution (20% K2EDTA solution) as an anticoagulant. Plasma was immediately harvested from the blood by centrifugation at 4000 rpm for 10 min at 4±2° C. and stored below −70° C. until bioanalysis. Immediately after collection of blood, myocardium samples were collected from each mouse at 1, 4, 8, 24, 48, 72, 96, 120, 144 and 168 h, or from each rat at 1, 8, 25 and 73 h. Myocardium samples were homogenized using ice-cold phosphate buffer saline (pH 7.4) and homogenates were stored below −70° C. until analysis. Total homogenate volume was five times the myocardium weight in mice, and three times the myocardium weight in rats.
(§4) The extraction procedures for plasma/myocardium samples and the spiked plasma calibration standards/quality control samples were identical.
(§5) A 25 μL of study sample or spiked calibration standard was added to individual pre-labeled micro-centrifuge tubes followed by 100 μL of internal standard prepared in acetonitrile (Glipizide 500 ng/mL) was added except for the blank, where 100 μL of acetonitrile was added. Samples were vortexed for 5 min. Samples were centrifuged for 10 min at a speed of 4000 rpm at 4° C. Following centrifugation, 100 μL of clear supernatant was transferred in 96-well plates and analysed using LC-MS/MS.
(§6) HPLC and MS conditions were as follows:
(§7) Non-Compartmental-Analysis tool of Phoenix WinNonlin® (Version 6.3) was used to assess the pharmacokinetic parameters. Peak plasma concentrations (Cmax) and time for the peak plasma concentrations (Tmax) were the observed values. The areas under the concentration time curve (AUClast and AUCinf) were calculated by linear trapezoidal rule. The terminal elimination rate constant (ke) was determined by regression analysis of the linear terminal portion of the log plasma concentration-time curve.
The oral absorption, distribution, and stability of FPER-001 and perhexiline were compared in the mouse model as described above. Maximum concentration (Cmax) and area under the curve (AUC) were investigated for both plasma and myocardia in male BALB/c mice, following 10 mg/kg oral gavage of FPER-001 or perhexiline, using an LC/MS/MS detection system as described above.

Series [2] in a line: Rat oral pharmacokinetics, plasma and myocardium. Format: in vivo, male Sprague-Dawley rats. The conditions noted are these: for concentration at 1 h / concentration at 8 h: male, Sprague-Dawley, 10 mg/kg oral. As to the method:
as §1, §2
FPER-001 and perhexiline samples were freshly prepared each day before administration. The weighed quantity (36.5 mg) of FPER-001 for p.o. dosing was added into a mortar. […] The formulation was sonicated for 2 min to obtain a homogenous suspension.
as §3, §4, §5, §6, §7
The oral absorption, distribution, and stability of FPER-001 and perhexiline were compared in the rat model as described above. Concentration was investigated for both plasma and myocardia in male Sprague-Dawley rats using an LC/MS/MS detection system as described above.

Another series concerns the target T1, CPT-1 (Rattus norvegicus, UniProt Q63704).
T1 construct: host or cells: rat cardiac mitochondria
T1 sequence (Q63704 1-772): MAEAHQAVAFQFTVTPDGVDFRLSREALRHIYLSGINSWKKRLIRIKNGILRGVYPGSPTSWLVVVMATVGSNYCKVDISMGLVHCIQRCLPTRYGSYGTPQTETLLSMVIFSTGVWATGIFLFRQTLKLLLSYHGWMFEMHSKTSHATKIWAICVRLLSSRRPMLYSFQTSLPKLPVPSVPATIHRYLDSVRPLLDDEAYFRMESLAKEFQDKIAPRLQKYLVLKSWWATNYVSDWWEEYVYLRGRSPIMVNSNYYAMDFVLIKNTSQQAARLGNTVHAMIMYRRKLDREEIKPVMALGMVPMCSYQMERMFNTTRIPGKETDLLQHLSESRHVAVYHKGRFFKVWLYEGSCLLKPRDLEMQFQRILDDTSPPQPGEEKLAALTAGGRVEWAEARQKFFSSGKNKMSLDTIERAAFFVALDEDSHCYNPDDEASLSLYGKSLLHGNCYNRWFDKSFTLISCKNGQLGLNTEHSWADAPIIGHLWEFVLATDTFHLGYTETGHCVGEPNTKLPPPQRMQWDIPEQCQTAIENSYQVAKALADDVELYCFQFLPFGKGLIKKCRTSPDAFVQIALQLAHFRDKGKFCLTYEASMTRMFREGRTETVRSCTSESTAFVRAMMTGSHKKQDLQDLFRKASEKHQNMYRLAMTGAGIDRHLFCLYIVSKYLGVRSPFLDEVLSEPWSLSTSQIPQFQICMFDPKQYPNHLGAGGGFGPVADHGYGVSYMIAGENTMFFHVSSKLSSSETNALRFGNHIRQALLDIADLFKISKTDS
The conditions noted are these: rat cardiac mitochondria; cited from earlier work.

The conditions of series [3]: in comparison with nitroglycerin; cited from earlier work.
For series [4] the following is noted: elderly patients with aortic stenosis unsuitable for valve replacement; cited from earlier work.
The conditions of series [5]: cited from earlier work.
For series [6] the following is noted: EM versus PM; cited from earlier work.
[7] abbreviates: myocardium, read-out: AUC 0-24, myocardium.
The mark [8] stands for this setting: myocardium, read-out: Cmax, myocardium.
Where [9] appears, read: plasma, read-out: AUC 0-24, plasma.
Where [10] appears, read: myocardium, 1 h, read-out: Conc., myocardium, 1 h.
The mark [11] stands for this setting: myocardium, 8 h, read-out: Conc., myocardium, 8 h.
Setting [12] is: plasma, 1 h, read-out: Conc., plasma, 1 h.
[13] abbreviates: plasma, 8 h, read-out: Conc., plasma, 8 h.

Like-named read-outs stand apart in the source and are kept apart here.

As to `FC1(F)CCC(C(CC2CCCCN2)C2CCCCC2)CC1` (mixture of isomers) [FPER-001, 2-(2-Cyclohexyl-2-(4,4-difluorocyclohexyl)ethyl)piperidine], the AUC(0-t) in series [1] (setting [7]) was found to be 32400 ng·h/mL; in series [1] (setting [9]) it was 3730 ng·h/mL. The Cmax came to 1680 ng/mL in series [1] (setting [8]) and 347 ng/mL in series [1] (plasma, read-out: Cmax, plasma). Besides, the “drug exposure versus perhexiline, myocardium” value in series [1] (oral dosing, myocardium) is about 18 fold. Besides, the “maximum drug concentration versus perhexiline, myocardium” value in series [1] (oral dosing, myocardium) was about 2.5 fold. Moreover, the “drug exposure versus perhexiline, plasma” value in series [1] (oral dosing, plasma) is listed as about 11 fold. In series [1] (oral dosing, plasma), the “maximum drug concentration versus perhexiline, plasma” value was about 3 fold. Besides, the results for the concentration at 1 h in series [2] (setting [10]) and in series [2] (setting [12]) were 5910 ng/mL and 386 ng/mL, respectively. The concentration at 8 h in series [2] (setting [11]) turned out to be 1290 ng/mL; in series [2] (setting [13]), 179 ng/mL. For the same molecule, in series [2] (oral dosing, myocardium, 1 h), the “drug concentration versus perhexiline, myocardium, 1 h” value is reported as about 3 fold. The “drug concentration versus perhexiline, myocardium, 8 h” value in series [2] (oral dosing, myocardium, 8 h) is listed as about 3.5 fold. Besides, the “drug concentration versus perhexiline, plasma, 1 h” value in series [2] (oral dosing, plasma, 1 h) is recorded as about 4 fold. Besides, the “drug concentration versus perhexiline, plasma, 8 h” value in series [2] (oral dosing, plasma, 8 h) is given as about 6 fold.

Take `C1CCC(C(CC2CCCCN2)C2CCCCC2)CC1` (stereo not drawn) [Perhexiline, 2-(2,2-dicyclohexylethyl)piperidine]: the AUC(0-t) in series [1] (setting [7]) is 1830 ng·h/mL; in series [1] (setting [9]) it was 350 ng·h/mL. Also, the highest concentration (Cmax) was found to be 665 ng/mL in series [1] (setting [8]) and 116 ng/mL in series [1] (plasma, read-out: Cmax, plasma). Besides, the values for the concentration at 1 h in series [2] (setting [10]) and in series [2] (setting [12]) were 1900 ng/mL and 99.9 ng/mL, respectively. In addition, the concentration at 8 h in series [2] (setting [11]) worked out at 361 ng/mL; in series [2] (setting [13]), 31.4 ng/mL. The IC50 on CPT-1 is 77 µM. Further, the “reduction in the symptoms of angina” value in series [3] was “greater than 50%”. In addition, the “patients with clear symptomatic improvement” value in series [4] is reported as 13 out of 15. Also, the “plasma perhexiline to metabolite ratio, patients without toxicological side-effects” value in series [5] (patients who showed no side-effects) is 0.3. In addition, the “plasma perhexiline to metabolite ratio, patients with side-effects” value in series [5] (patients who showed side-effects) is given as 2.8. For the same molecule, the “difference in perhexiline clearance and required dosage between EM and PM patients” value in series [6] is listed as about 100 fold.
